melting point: 205 to 206 °C
SMILES: CC(C)CN(C[C@@H](O)[C@H](Cc1ccccc1)NC(=O)[C@@H](NC(=O)CNC(=O)C(C)C)C(C)(C)C)S(=O)(=O)c1ccc2c(c1)OCO2 (stereo in doubt)

— US6562848B1, “Bis-amino acid sulfonamides as HIV protease inhibitors” (Bristol-Myers Squibb Company, priority 2001, dated 2003)
